Columns and labels:
Format in all cases: biochemical
[1] = test system: Tyrosinase EC 1.14.18.1; test: Enzyme activity under gas: tyrosinase; details: 25°, optimal reaction conditions, simple saturation of solution with gas
Experimental: (§1) Sealed cuvettes containing enzymes representative of and in fact important in food product degradation processes were thoroughly purged and filled with assay gases. Injection of gassed substrate solutions started the reactions, which were generally conducted under optimal conditions. These were monitored […] by scanning uv/vis spectrophotometry. All controls were conducted for oxygen, nitrogen and carbon dioxide. A range of temperatures and pressures were employed. An example protocol is appended. Results were expressed in real-time, and transformed to calculate yield and rate differences for the reaction. Over 50 exemplary enzymes were so assayed. Enzymes selected for examination from various products are assayed in precisely the same manner, but always in terms of relative activity in comparison with that product in air or another control gas or gas mixture.
(§2) The follwing Table summarizes the maximum inhibition of enzymes activity realized with various noble gases under various storage conditions.
at 25° and optimal reaction conditions, simple saturation of solution with gas: […]

[2] = test system: Aspartate aminotransferase (EC 2.6.1.1); test: Enzyme activity under gas: aspartate aminotransferase
Experimental: as §1, §2

[3] = target: Glucose oxidase EC 1.1.3.4 (Aspergillus niger, UniProt P13006); test: Enzyme activity under gas: glucose oxidase
Experimental: as §1, §2

[4] = test system: Acetyl-CoA synthetase EC 6.2.1.1; test: Enzyme activity under gas: acetyl-CoA synthetase
Experimental: as §1, §2

[5] = test system: Lipase EC 3.1.1.3; test: Enzyme activity under gas: lipase
Experimental: as §1, §2

[6] = target: Gamma-glutamyl transpeptidase EC 2.3.2.2 (Homo sapiens, UniProt P19440); test: Enzyme activity under gas: gamma-glutamyl transpeptidase
Experimental: as §1, §2

[7] = target: Phosphoglucose isomerase (Homo sapiens, UniProt P06744); test: Enzyme activity under gas: phosphoglucose isomerase
Experimental: as §1, §2

Sequence of Gamma-glutamyl transpeptidase EC 2.3.2.2 (P19440 whole entry): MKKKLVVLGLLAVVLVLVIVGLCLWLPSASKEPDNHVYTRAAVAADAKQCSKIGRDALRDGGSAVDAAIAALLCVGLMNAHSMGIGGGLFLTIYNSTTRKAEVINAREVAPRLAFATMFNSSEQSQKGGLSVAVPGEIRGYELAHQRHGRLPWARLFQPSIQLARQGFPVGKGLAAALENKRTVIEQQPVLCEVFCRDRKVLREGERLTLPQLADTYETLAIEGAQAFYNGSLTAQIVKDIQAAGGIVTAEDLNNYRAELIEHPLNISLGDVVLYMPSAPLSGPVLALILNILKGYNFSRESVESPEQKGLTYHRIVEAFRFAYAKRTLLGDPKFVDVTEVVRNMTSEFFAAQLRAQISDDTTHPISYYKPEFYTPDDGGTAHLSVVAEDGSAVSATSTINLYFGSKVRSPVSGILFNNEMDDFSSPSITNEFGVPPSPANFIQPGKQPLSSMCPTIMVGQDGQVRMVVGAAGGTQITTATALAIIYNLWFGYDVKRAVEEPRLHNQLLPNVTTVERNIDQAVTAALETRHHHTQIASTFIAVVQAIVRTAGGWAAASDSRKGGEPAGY
Sequence of Glucose oxidase EC 1.1.3.4 (P13006 17-605): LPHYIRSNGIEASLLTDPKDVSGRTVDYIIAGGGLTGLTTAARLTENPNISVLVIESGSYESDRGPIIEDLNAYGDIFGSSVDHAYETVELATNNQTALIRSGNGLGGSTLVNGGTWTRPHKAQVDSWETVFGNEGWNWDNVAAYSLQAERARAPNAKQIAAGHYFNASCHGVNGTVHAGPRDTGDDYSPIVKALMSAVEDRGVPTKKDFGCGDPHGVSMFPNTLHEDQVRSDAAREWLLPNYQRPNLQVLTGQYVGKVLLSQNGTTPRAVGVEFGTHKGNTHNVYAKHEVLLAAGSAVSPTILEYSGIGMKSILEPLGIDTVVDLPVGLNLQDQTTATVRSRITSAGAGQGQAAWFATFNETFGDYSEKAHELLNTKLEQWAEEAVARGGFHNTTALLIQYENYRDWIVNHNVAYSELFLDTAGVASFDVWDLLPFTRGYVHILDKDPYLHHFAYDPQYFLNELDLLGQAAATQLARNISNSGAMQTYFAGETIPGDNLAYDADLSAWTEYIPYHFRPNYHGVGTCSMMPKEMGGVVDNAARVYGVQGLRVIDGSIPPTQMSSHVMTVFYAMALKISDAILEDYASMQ

In the case of `[Kr]` [Kr, krypton], the “Result (inhibition vs air), maximum inhibition of enzyme activity” value [1] is reported as −73%, the “Result (inhibition), maximum inhibition of enzyme activity” value (shortened to “Result (inhibition), maximum inhibition”) [2] is reported as −82% and the “Result (inhibition), maximum inhibition” value [3] is reported as −92.7%. The Result [4] was −16%, the “Result, With Lipase” value [5] was −25% and the “Result (inhibition), maximum inhibition” value [6] was −8%.
With `[Ne]` [Ne, neon] the “Result (inhibition vs air), maximum inhibition of enzyme activity” value [1] was −46.7%, the Result [7] was −45% and the “Result (inhibition), maximum inhibition” value [2] was −12%. For the same molecule, the “Result (inhibition), maximum inhibition” value [3] was −61.7%, the Result [4] was −15% and the “Result, With Lipase” value [5] was −15%. For the same molecule, the “Result (inhibition), maximum inhibition” value [6] was −3%.
With `[Xe]` [Xe, xenon] the Result [7] was −61%, the “Result (inhibition), maximum inhibition” value [2] was −17% (inhibition) and the “Result (inhibition), maximum inhibition” value [3] was −91.6% (inhibition). The Result [4] was −18%, the “Result, With Lipase” value [5] was −25.6% and the “Result (inhibition), maximum inhibition” value [6] was −7% (inhibition).
